Laboratory results as given in PubChem BioAssay (NCI).
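The concentration for 50% growth inhibition is given as GI50. At the TGI there is no net growth.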

Key:
Assay in all cases: NCI-60 cell line screen, 384-well format
CCRF-CEM leukemia = system: CCRF-CEM leukemia
SR leukemia = system: SR leukemia
SF-268 CNS = system: SF-268 CNS
PC-3 prostate = system: PC-3 prostate
HL-60(TB) leukemia = system: HL-60(TB) leukemia
NCI-H460 NSCLC = system: NCI-H460 NSCLC
HCT-15 colon = system: HCT-15 colon
TK-10 renal = system: TK-10 renal
SK-MEL-28 melanoma = system: SK-MEL-28 melanoma
NCI/ADR-RES ovarian = system: NCI/ADR-RES ovarian
T-47D breast = system: T-47D breast
IGROV1 ovarian = system: IGROV1 ovarian
MOLT-4 leukemia = system: MOLT-4 leukemia
EKVX NSCLC = system: EKVX NSCLC
A498 renal = system: A498 renal
HT29 colon = system: HT29 colon
ACHN renal = system: ACHN renal
MDA-MB-468 breast = system: MDA-MB-468 breast
SK-MEL-5 melanoma = system: SK-MEL-5 melanoma
SNB-75 CNS = system: SNB-75 CNS
UO-31 renal = system: UO-31 renal
A549 NSCLC = system: A549 NSCLC
MDA-MB-231 breast = system: MDA-MB-231 breast
HS 578T breast = system: HS 578T breast
LOX IMVI melanoma = system: LOX IMVI melanoma
NCI-H226 lung = system: NCI-H226 lung
RPMI-8226 leukemia = system: RPMI-8226 leukemia
SF-539 CNS = system: SF-539 CNS
HOP-92 NSCLC = system: HOP-92 NSCLC
CAKI-1 renal = system: CAKI-1 renal
K-562 leukemia = system: K-562 leukemia
SN12C renal = system: SN12C renal
SNB-19 CNS = system: SNB-19 CNS
NCI-H23 lung = system: NCI-H23 lung
MDA-MB-435 melanoma = system: MDA-MB-435 melanoma
HCC-2998 colon = system: HCC-2998 colon
NCI-H322M lung = system: NCI-H322M lung
KM12 colon = system: KM12 colon
UACC-257 melanoma = system: UACC-257 melanoma
COLO 205 colon = system: COLO 205 colon
MCF7 breast = system: MCF7 breast
786-0 renal = system: 786-0 renal
M14 melanoma = system: M14 melanoma
OVCAR-4 ovarian = system: OVCAR-4 ovarian
NCI-H522 lung = system: NCI-H522 lung
DU-145 prostate = system: DU-145 prostate

COc1cc(OC)c(F)c(COc2cnc(Nc3cnn(CCO)c3)nc2)c1F
GI50 (CCRF-CEM leukemia): 204 nM | TGI (CCRF-CEM leukemia): 397 nM | GI50 (SR leukemia): 41.1 nM | TGI (SR leukemia): 165 nM | GI50 (SF-268 CNS): 491 nM | TGI (SF-268 CNS): 3680 nM | GI50 (PC-3 prostate): 1250 nM | TGI (PC-3 prostate): > 100000 nM | GI50 (HL-60(TB) leukemia): 140 nM | TGI (HL-60(TB) leukemia): 272 nM | GI50 (NCI-H460 NSCLC): 353 nM | TGI (NCI-H460 NSCLC): 1000 nM | GI50 (HCT-15 colon): 386 nM | TGI (HCT-15 colon): > 100000 nM | GI50 (TK-10 renal): 714 nM | TGI (TK-10 renal): > 100000 nM | GI50 (SK-MEL-28 melanoma): 741 nM | TGI (SK-MEL-28 melanoma): > 100000 nM | GI50 (NCI/ADR-RES ovarian): 442 nM | TGI (NCI/ADR-RES ovarian): 1830 nM | GI50 (T-47D breast): 810 nM | TGI (T-47D breast): > 100000 nM | GI50 (IGROV1 ovarian): 536 nM | TGI (IGROV1 ovarian): > 100000 nM | GI50 (MOLT-4 leukemia): 187 nM | TGI (MOLT-4 leukemia): 356 nM | GI50 (EKVX NSCLC): 828 nM | TGI (EKVX NSCLC): > 100000 nM | GI50 (A498 renal): 355 nM | TGI (A498 renal): > 100000 nM | GI50 (HT29 colon): 343 nM | TGI (HT29 colon): 1070 nM | GI50 (ACHN renal): 1020 nM | TGI (ACHN renal): > 100000 nM | GI50 (MDA-MB-468 breast): 234 nM | TGI (MDA-MB-468 breast): 514 nM | GI50 (SK-MEL-5 melanoma): 383 nM | TGI (SK-MEL-5 melanoma): 1580 nM | GI50 (SNB-75 CNS): 140 nM | TGI (SNB-75 CNS): 467 nM | GI50 (UO-31 renal): 844 nM | TGI (UO-31 renal): > 100000 nM | GI50 (A549 NSCLC): 1270 nM | TGI (A549 NSCLC): > 100000 nM | GI50 (MDA-MB-231 breast): 657 nM | TGI (MDA-MB-231 breast): > 100000 nM | GI50 (HS 578T breast): 226 nM | TGI (HS 578T breast): 672 nM | GI50 (LOX IMVI melanoma): 485 nM | TGI (LOX IMVI melanoma): 3820 nM | GI50 (NCI-H226 lung): 260 nM | TGI (NCI-H226 lung): 2290 nM | GI50 (RPMI-8226 leukemia): 307 nM | TGI (RPMI-8226 leukemia): 1240 nM | GI50 (SF-539 CNS): 340 nM | TGI (SF-539 CNS): 1500 nM | GI50 (HOP-92 NSCLC): 747 nM | TGI (HOP-92 NSCLC): 4740 nM | GI50 (CAKI-1 renal): 353 nM | TGI (CAKI-1 renal): 1650 nM | GI50 (K-562 leukemia): 264 nM | TGI (K-562 leukemia): 1100 nM | GI50 (SN12C renal): 1180 nM | TGI (SN12C renal): 6330 nM | GI50 (SNB-19 CNS): 681 nM | TGI (SNB-19 CNS): > 100000 nM | GI50 (NCI-H23 lung): 494 nM | TGI (NCI-H23 lung): 2240 nM | GI50 (MDA-MB-435 melanoma): 177 nM | TGI (MDA-MB-435 melanoma): 411 nM | GI50 (HCC-2998 colon): 751 nM | TGI (HCC-2998 colon): > 100000 nM | GI50 (NCI-H322M lung): 1790 nM | TGI (NCI-H322M lung): > 100000 nM | GI50 (KM12 colon): 327 nM | TGI (KM12 colon): 3410 nM | GI50 (UACC-257 melanoma): 2120 nM | TGI (UACC-257 melanoma): > 100000 nM | GI50 (COLO 205 colon): 454 nM | TGI (COLO 205 colon): 3210 nM | GI50 (MCF7 breast): 408 nM | TGI (MCF7 breast): > 100000 nM | GI50 ([…]-0 renal): 425 nM | TGI (786-0 renal): > 100000 nM | GI50 (M14 melanoma): 239 nM | TGI (M14 melanoma): 709 nM | GI50 (OVCAR-4 ovarian): 8520 nM | TGI (OVCAR-4 ovarian): > 100000 nM | GI50 (NCI-H522 lung): 257 nM | TGI (NCI-H522 lung): 658 nM | GI50 (DU-145 prostate): 1600 nM | TGI (DU-145 prostate): > 100000 nM
